Source: patent publication US6969708B1, “Process for the preparation of a high purity composition comprising (7α, 17α)- 17-hydroxy- 7-methyl- 19-nor-17-pregn-5(10)-en-20-yn-3-one” (Akzo Nobel N.V., priority 1998, dated 2005)

Assay: Stress test at 45° C. of bulk Tibolone crystals (increase of Org OM38)
Format: physicochemical
Procedure: A solution of (7α, 17α)-3,3-dimethoxy-17-hydroxy-7-methyl-19-norpregn-5(10)-en20-yn-3-one (15 kg) in a mixture of pyridine (630 ml) and ethanol (315 liters) was mixed with a solution of oxalic acid (750 gr) in water (90 liters) and the mixture was stirred for 2 hours at approximately 30° C. The solution was poured out in a mixture of pyridine (1350 ml) and water (300 liters) and the resulting suspension was filtered. The crystals were washed with a mixture of water and pyridine and dried under vacuum at 40° C. to give (7α, 17α)-17-hydroxy-7-methyl-19-norpregn-5(10)-en-20-yn-3-one containing 0.6% of the corresponding (7α, 17α)-17-hydroxy-7-methyl-19-norpregn-4-en-20-yn-3-one as indicated by HPLC analysis; a stress test at 45° C. (duration 1 month) indicated a 0.4% increase of the latter compound.
A solution of (7α, 17α)-3,3-dimethoxy-17-hydroxy-7-methyl-19-norpregn-5(10)-en-20-yn-3-one (15 kg) in a mixture of pyridine (630 ml) and ethanol (315 liters) was mixed with a solution of oxalic acid (375 gr) in water (90 liters) and the mixture was stirred for 3 hours at approximately 30° C. The solution was poured out in a mixture of pyridine (1350 ml) and water (300 liters) and the resulting suspension is filtered. The crystals are washed with a mixture of water and pyridine and allowed to age for 3–6 days at room temperature. Subsequently, the crystals were dried under vacuum at 40° C. to give (7α, 17α)-17-hydroxy-7-methyl-19-norpregn-5(10)-en-20-yn-3-one containing≦0.1% of the corresponding (7α, 17α)-17-hydroxy-7-methyl-19-norpregn-4-en-20-yn-3-one as indicated by HPLC analysis; a stress test at 45° C. (duration 1 week) indicated a<0.1% increase of the latter compound.
The preparation as described in example 2 was repeated. (7α, 17α)-17-hydroxy-7-methyl-19-norpregn-5(10)-en-20-yn-3-one was obtained which contained 0.2% of the corresponding. (7α, 17α)-17-hydroxy-7-methyl-19-norpregn-4-en-20-yn-3-one as indicated by HPLC analysis; a stress test at 45° C. (duration 1 week) indicated a 0.1% increase of the latter compound.

Structure (SMILES): C#C[C@]1(O)CCC2C3C(CCC21C)C1=C(CC(=O)CC1)C[C@H]3C (single isomer, unassigned) [Example 2, (7α, 17α)-17-hydroxy-7-methyl-19-norpregn-5(10)-en-20-yn-3-one]
- increase of (7α, 17α)-17-hydroxy-7-methyl-19-norpregn-4-en-20-yn-3-one in stress test (duration 1 week): < 0.1%

Structure (SMILES): C#C[C@]1(O)CCC2C3C(CCC21C)C1=C(CC(=O)CC1)C[C@H]3C (single isomer, unassigned) [Example 3, (7α, 17α)-17-hydroxy-7-methyl-19-norpregn-5(10)-en-20-yn-3-one]
- increase of (7α, 17α)-17-hydroxy-7-methyl-19-norpregn-4-en-20-yn-3-one in stress test (duration 1 week): 0.1%

Structure (SMILES): C#C[C@]1(O)CCC2C3C(CCC21C)C1=C(CC(=O)CC1)C[C@H]3C (stereo partly drawn) [Example 1, (7α, 17α)-17-hydroxy-7-methyl-19-norpregn-5(10)-en-20-yn-3-one]
- increase of (7α, 17α)-17-hydroxy-7-methyl-19-norpregn-4-en-20-yn-3-one in stress test (duration 1 month): 0.4%
